Values of other authors in patent US8742076B2, “Nemorubicin metabolite and analog reagents, antibody-drug conjugates and methods” (Genentech, Inc., priority 2008, dated 2014).

What was measured:
[1] = system: tumor models
[2] = comparison with nemorubicin and doxorubicin

Compound: COc1cccc2c1C(=O)c1c(O)c3c(c(O)c1C2=O)C[C@@](O)(C(=O)CO)C[C@@H]3O[C@H]1C[C@H]2[C@H](O[C@@H]3[C@@H](OC)OCCN32)[C@H](C)O1 [PNU (159682), 3′-deamino-3″,4′-anhydro-[2″(S)-methoxy-3″(R)-oxy-4″-morpholinyl]doxorubicin]
- efficacy in in vivo tumor models [1]: effective
- cytotoxicity in vitro compared with nemorubicin and doxorubicin [2]: remarkably more cytotoxic than nemorubicin and doxorubicin
